Assay results published in article PMC10974290, “Biocatalytic Synthesis of Coumarin S-Glycosides: Towards Non-Cytotoxic Probes for Biomedical Imaging and Sensing” (Molecules, 2024).
pIC50: −log10 of the molar value.

tested on: HaCaT (keratinocyte normal skin); assay: MTT cell proliferation assay, HaCaT; format: cell-based; conditions: Homo sapiens, 72 h incubation, 95% confidence interval in parentheses
Procedure: To use these S-glycosidic compounds in cellulo, the potential impact of the glycosidic linkage nature on the anticancer activity was assessed. The S-glycoside derivatives and the 7-MC were tested against four human cancer cell lines and a healthy one, namely A549 (lung carcinoma), HS-683 (glioma cancer), MCF-7 (breast adenocarcinoma), SK-MEL-28 (melanoma skin cancer), and HaCaT (keratinocyte normal skin), using MTT (thiazolyl blue tetrazolium bromide, Sigma-Aldrich, St. Louis, MO, USA) assay, as previously described in the literature. The selected reference drugs were 5-fluorouracil (5-FU) and etoposide.
Cell proliferation of five distinct cell lines was evaluated using the colorimetric MTT (thiazolyl blue tetrazolium bromide, Sigma) assay. Human keratinocyte normal skin HaCaT was cultivated in DMEM supplemented with 4.5 g/L glucose, 2 mM L-glutamine, and 10% FBS. Cancer cell lines and their respective growth media were obtained from CLS Cell Line Service GmbH (Eppelheim, Germany). Specifically, human skin melanoma SK-MEL-28 and human brain glioma HS683 were cultivated in DMEM with identical supplements as HaCaT cells. The human lung carcinoma cell line A-549 was grown in DMEM/Ham’s F12 (1:1) medium supplemented with 2 mM L-glutamine and 5% FBS. Additionally, human breast adenoma carcinoma MCF-7 cells were sustained in EMEM supplemented with 2 mM L-glutamine, sodium pyruvate, non-essential amino acids (NEAAs), 10 µg/mL insulin human, and 10% FBS. The MTT assay relies on the reduction of the yellow product thiazolyl blue tetrazolium bromide (MTT) to formazan, a purple-blue product, by mitochondrial dehydrogenases in metabolically active cells. The number of living cells after incubation in the presence (or absence, control) of the tested molecules is directly proportional to the blue color, which was measured by spectrophotometry. To perform the assay, cells were initially seeded at a density of 2500 cells/mL in 96-well culture plates (Nunc™ Edge 2.0, Fisher) and allowed to adhere and proliferate over a 24-hour incubation period. Following this, the cells were treated with various concentrations of the tested compounds, which were previously prepared as serial dilutions and dissolved in 0.1% DMSO. These stable solutions guarantee the consistency of experimental conditions over extended periods. Each concentration of the tested compounds underwent triplicate testing (n = 3), and cells were subsequently incubated for 72 h to allow for thorough evaluation. Following this incubation period, MTT reagent (5 mg/mL solution in PBS) was introduced to each well (10% v/v), and cells were further incubated for 4 h. Then, the culture medium was carefully removed, and the resulting blue formazan crystals were dissolved in 100 µL of 100% DMSO. Absorbance readings were taken at 540 nm, referencing a wavelength of 620 nm, using a spectrophotometer. In determining the IC50, the absorbance of serial dilutions of each cell line, treated under identical conditions but without the presence of the tested compounds, was measured.

`Cc1cc(=O)oc2cc(S[C@@H]3O[C@H](C)[C@H](O)[C@H](O)[C@H]3O)ccc12` [Compound S-5, 4-Methylumbellifer-7-yl 1-thio-β-D-fucopyranoside] and `Cc1cc(=O)oc2cc(S[C@@H]3O[C@H](CO)[C@@H](O)[C@H](O)[C@H]3O)ccc12` [Compound S-3, 4-Methylumbellifer-7-yl 1-thio-β-D-glucopyranoside] cannot be ordered by pIC50: less than 3.00 for the first, less than 3.00 for the second.

`Cc1cc(=O)oc2cc(S[C@@H]3O[C@H](C(=O)O)[C@@H](O)[C@H](O)[C@H]3O)ccc12` [Compound S-1, 4-Methylumbellifer-7-yl 1-thio-β-D-glucopyranosiduronic acid] and `Cc1cc(=O)oc2cc(S[C@H]3O[C@H](CO)[C@H](O)[C@H](O)[C@H]3O)ccc12` [Compound S-6, 4-Methylumbellifer-7-yl 1-thio-α-D-galactopyranoside] cannot be ordered by pIC50: less than 3.00 for the first, less than 3.00 for the second.

First: Cc1cc(=O)oc2cc(S[C@@H]3OC[C@@H](O)[C@H](O)[C@H]3O)ccc12 [Compound S-2, 4-Methylumbellifer-7-yl 1-thio-β-D-xylopyranoside]
Second: Cc1cc(=O)oc2cc(S[C@@H]3O[C@H](CO)[C@H](O)[C@H](O)[C@H]3O)ccc12 [Compound S-4, 4-Methylumbellifer-7-yl 1-thio-β-D-galactopyranoside]
The pIC50 of the first is higher: 3.79 for the first, less than 3.00 for the second. The first is the more potent here.
